According to patent publication US20250235543A1, “MODIFIED PROTEINS AND PROTEIN DEGRADERS” (Cullgen (Shanghai), Inc., priority 2021, published 2025):

Assays:
[1] = biological target: T1, CDK4 (Homo sapiens, UniProt P11802); assay: CDK4 percentage degradation in Calu-1 cells (immunoblotting); type: cell-based; settings: Calu-1 cells, 16 hours; for inhibition at 0.2 µM: 200 nM, read-out: CDK4 Degradation (200 nM); for inhibition at 10 µM: read-out: CDK4 Degradation (10 μM)
T1 construct: endogenous in cells; host or cells: Calu-1
T1 sequence (P11802 2-303 limits assumed): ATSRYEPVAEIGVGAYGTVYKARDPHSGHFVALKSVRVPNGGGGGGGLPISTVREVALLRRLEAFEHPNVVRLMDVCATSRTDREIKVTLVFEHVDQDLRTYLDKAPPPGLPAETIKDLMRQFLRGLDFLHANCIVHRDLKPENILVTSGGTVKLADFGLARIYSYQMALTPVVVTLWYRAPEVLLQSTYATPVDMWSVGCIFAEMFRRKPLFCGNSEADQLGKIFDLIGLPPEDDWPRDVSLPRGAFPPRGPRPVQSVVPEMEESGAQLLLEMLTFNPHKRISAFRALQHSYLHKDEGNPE
T1 sequence (P24385 whole entry partner): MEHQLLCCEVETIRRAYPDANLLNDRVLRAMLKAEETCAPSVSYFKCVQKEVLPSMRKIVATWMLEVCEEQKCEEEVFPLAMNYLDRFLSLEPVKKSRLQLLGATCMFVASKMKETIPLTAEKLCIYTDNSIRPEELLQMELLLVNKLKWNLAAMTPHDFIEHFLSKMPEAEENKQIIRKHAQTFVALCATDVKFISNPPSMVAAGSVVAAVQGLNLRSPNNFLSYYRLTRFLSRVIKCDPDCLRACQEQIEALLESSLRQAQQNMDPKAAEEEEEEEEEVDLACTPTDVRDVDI
T1 sequence (Q16531 2-1140 limits assumed, further chain): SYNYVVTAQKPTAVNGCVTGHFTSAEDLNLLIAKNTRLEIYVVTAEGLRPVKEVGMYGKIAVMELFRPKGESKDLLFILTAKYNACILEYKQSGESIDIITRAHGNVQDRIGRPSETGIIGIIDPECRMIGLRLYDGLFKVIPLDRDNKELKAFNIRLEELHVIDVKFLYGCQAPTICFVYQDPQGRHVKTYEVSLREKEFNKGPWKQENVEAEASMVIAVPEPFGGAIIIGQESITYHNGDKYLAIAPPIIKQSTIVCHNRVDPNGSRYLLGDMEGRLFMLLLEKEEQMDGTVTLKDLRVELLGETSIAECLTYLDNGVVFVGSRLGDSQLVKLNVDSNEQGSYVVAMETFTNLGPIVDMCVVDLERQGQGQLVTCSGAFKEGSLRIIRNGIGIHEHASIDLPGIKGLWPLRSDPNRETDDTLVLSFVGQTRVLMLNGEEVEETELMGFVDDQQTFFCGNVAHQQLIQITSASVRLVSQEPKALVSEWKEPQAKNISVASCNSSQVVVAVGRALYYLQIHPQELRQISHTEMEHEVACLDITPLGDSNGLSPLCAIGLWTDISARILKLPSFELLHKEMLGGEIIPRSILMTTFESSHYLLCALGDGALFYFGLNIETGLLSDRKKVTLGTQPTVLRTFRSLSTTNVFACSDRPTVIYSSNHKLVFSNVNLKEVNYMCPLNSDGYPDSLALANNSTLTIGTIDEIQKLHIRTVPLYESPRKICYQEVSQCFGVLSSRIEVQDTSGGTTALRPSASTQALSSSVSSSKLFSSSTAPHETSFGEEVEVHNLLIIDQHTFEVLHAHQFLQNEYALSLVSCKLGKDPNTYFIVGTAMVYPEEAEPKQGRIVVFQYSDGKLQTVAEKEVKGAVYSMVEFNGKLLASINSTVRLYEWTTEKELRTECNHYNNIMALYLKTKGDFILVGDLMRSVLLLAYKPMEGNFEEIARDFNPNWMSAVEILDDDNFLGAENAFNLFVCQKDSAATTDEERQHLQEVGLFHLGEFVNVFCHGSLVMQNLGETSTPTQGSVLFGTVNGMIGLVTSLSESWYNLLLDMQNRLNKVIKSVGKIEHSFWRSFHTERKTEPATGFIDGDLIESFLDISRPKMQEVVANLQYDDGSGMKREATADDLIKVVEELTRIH
Method in brief: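 Cultured cells were rinsed once in cold PBS and lysed in cold RIPA buffer containing protease and phosphatase inhibitors, with gentle agitation at 4° C. for 30 min. Lysates were centrifuged at 13,000 rpm for 10 min at 4° C., and protein was quantified by BCA. Samples were then separated by SDS-PAGE, detected with ECL, and the CDK4 bands quantified in Image Lab.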

[2] = test system: cyclin D1; assay: Cyclin D1 percentage degradation in Calu-1 cells (immunoblotting); type: cell-based; settings: 16 hours
Method in brief: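 Cells were rinsed once in cold PBS and lysed in cold RIPA buffer containing protease and phosphatase inhibitors, with gentle agitation at 4° C. for 30 min. Lysates were spun at 13,000 rpm for 10 min at 4° C., protein was measured by BCA, and samples were boiled in Laemmli buffer at 99° C. for 5 min before SDS-PAGE immunoblotting.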

Row | inhibition at 0.2 µM [1] | inhibition at 10 µM [1] | Compound | CyclinD1 Degradation (200 nM) [2] | CyclinD1 Degradation (10 μM) [2]
1 | < 30% | – | CC(=O)c1c(C)c2cnc(Nc3ccc(N4CCN(CC(=O)NCCCCCNc5cc(Cl)ccc5C(=O)Nc5ccc(C)c(C6CC6)n5)CC4)cn3)nc2n(C2CCCC2)c1=O [CPD-378, 2-((5-(2-(4-(6-((6-acetyl-8-cyclopentyl-5-methyl-7-oxo-7,8-dihydropyrido[2,3-d]pyrimidin-2-yl)amino)pyridin-3-yl)piperazin-1-yl)acetamido)pentyl)amino)-4-chloro-N-(6-cyclopropyl-5-methylpyridin-2-yl)benzamide] | B (protein percentage degradation <80%, and >=50%) | –
2 | > 80% | – | COc1ccc(NC(=O)c2ccc(N(C)C)cc2NC(=O)CCOCCOCCNC(=O)CN2CCN(c3ccc(Nc4ncc5c(C)c(C(C)=O)c(=O)n(C6CCCC6)c5n4)nc3)CC2)nn1 [CPD-365, 2-(3-(2-(2-(2-(4-(6-((6-Acetyl-8-cyclopentyl-5-methyl-7-oxo-7,8-dihydropyrido[2,3-d]pyrimidin-2-yl)amino)pyridin-3-yl)piperazin-1-yl)acetamido)ethoxy)ethoxy)propanamido)-4-(dimethylamino)-N-(6-methoxypyridazin-3-yl)benzamide] | A (protein percentage degradation >=80%) | –
3 | – | 50 to 80% | Cc1nc(NC(=O)c2ccccc2NC(=O)CCCCCCNC(=O)CN2CCN(c3ccc(Nc4ncc5cc6n(c5n4)C4(CCCCC4)CNC6=O)nc3)CC2)sc1C [CPD-319, N-(4,5-Dimethylthiazol-2-yl)-2-(7-(2-(4-(6-((6′-oxo-7′,8′-dihydro-6′H-spiro[cyclohexane-1,9′-pyrazino[1′,2′:1,5]pyrrolo[2,3-d]pyrimidin]-2′-yl)amino)pyridin-3-yl)piperazin-1-yl)acetamido)heptanamido)benzamide] | – | A (protein percentage degradation >= 80%)
4 | 50 to 80% | – | CC(=O)c1c(C)c2cnc(Nc3ccc(N4CCN(CC(=O)NCCCCCNc5ccccc5C(=O)Nc5nc(C)c(C)s5)CC4)cn3)nc2n(C2CCCC2)c1=O [CPD-363, 2-((5-(2-(4-(6-((6-Acetyl-8-cyclopentyl-5-methyl-7-oxo-7,8-dihydropyrido[2,3-d]pyrimidin-2-yl)amino)pyridin-3-yl)piperazin-1-yl)acetamido)pentyl)amino)-N-(4,5-dimethylthiazol-2-yl)benzamide] | A (protein percentage degradation >=80%) | –
5 | – | < 30% | Cc1nc(NC(=O)c2ccccc2NC(=O)CCOCCOCCOCCOCCOCCOCCNC(=O)CN2CCN(c3ccc(Nc4ncc(F)c(-c5cc(F)c6nc(C)n(C(C)C)c6c5)n4)nc3)CC2)sc1C [CPD-313, N-(4,5-Dimethylthiazol-2-yl)-2-(1-(4-(6-((5-fluoro-4-(4-fluoro-1-isopropyl-2-methyl-1H-benzo[d]imidazol-6-yl)pyrimidin-2-yl)amino)pyridin-3-yl)piperazin-1-yl)-2-oxo-6,9,12,15,18,21-hexaoxa-3-azatetracosan-24-amido)benzamide] | – | A (protein percentage degradation >= 80%)

The remaining lines, values behind:

Row | Compound | inhibition at 0.2 µM [1] | inhibition at 10 µM [1] | CyclinD1 Degradation (200 nM) [2] | CyclinD1 Degradation (10 μM) [2]
6 | CC(=O)c1c(C)c2cnc(Nc3ccc(N4CCN(CC(=O)NCCCCCNc5ccc(C)c(C(=O)Nc6nc(C)c(C)s6)c5)CC4)cn3)nc2n(C2CCCC2)c1=O [CPD-116, 5-((5-(2-(4-(6-((6-Acetyl-8-cyclopentyl-5-methyl-7-oxo-7,8-dihydropyrido[2,3-d]pyrimidin-2-yl)amino)pyridin-3-yl)piperazin-1-yl)acetamido)pentyl)amino)-N-(4,5-dimethylthiazol-2-yl)-2-methylbenzamide] | < 30% | – | D (protein percentage degradation <30%) | –
7 | CC(=O)c1c(C)c2cnc(Nc3ccc(N4CCN(CC(=O)NCCOCCOCCOCCOCCNC(=O)COc5ccc(C(=O)Nc6ncc(C)s6)c(C)c5)CC4)cn3)nc2n(C2CCCC2)c1=O [CPD-041, 4-((20-(4-(6-((6-Acetyl-8-cyclopentyl-5-methyl-7-oxo-7,8-dihydropyrido[2,3-d]pyrimidin-2-yl)amino)pyridin-3-yl)piperazin-1-yl)-2,19-dioxo-6,9,12,15-tetraoxa-3,18-diazaicosyl)oxy)-2-methyl-N-(5-methylthiazol-2-yl)benzamide] | < 30% | – | D (protein percentage degradation <30%) | –
8 | CC(=O)c1c(C)c2cnc(Nc3ccc(N4CCN(CC(=O)NCCOCCOCCC(=O)Nc5ccccc5C(=O)Nc5ccc(C)nc5)CC4)cn3)nc2n(C2CCCC2)c1=O [CPD-060, 2-(3-(2-(2-(2-(4-(6-((6-Acetyl-8-cyclopentyl-5-methyl-7-oxo-7,8-dihydropyrido[2,3-d]pyrimidin-2-yl)amino)pyridin-3-yl)piperazin-1-yl)acetamido)ethoxy)ethoxy)propanamido)-N-(6-methylpyridin-3-yl)benzamide] | 50 to 80% | – | A (protein percentage degradation >=80%) | –
9 | CC(=O)c1c(C)c2cnc(Nc3ccc(N4CCN(CC(=O)NCCOCCOCCC(=O)Nc5ccccc5C(=O)Nc5nc(C6CC6)c(C)s5)CC4)cn3)nc2n(C2CCCC2)c1=O [CPD-057, 2-(3-(2-(2-(2-(4-(6-((6-Acetyl-8-cyclopentyl-5-methyl-7-oxo-7,8-dihydropyrido[2,3-d]pyrimidin-2-yl)amino)pyridin-3-yl)piperazin-1-yl)acetamido)ethoxy)ethoxy)propanamido)-N-(4-cyclopropyl-5-methylthiazol-2-yl)benzamide] | 50 to 80% | – | A (protein percentage degradation >=80%) | –
10 | CC(=O)c1c(C)c2cnc(Nc3ccc(N4CCN(CC(=O)NCCCCCCCNC(=O)c5ccc(C(=O)Nc6ncc(C)s6)c(C)c5)CC4)cn3)nc2n(C2CCCC2)c1=O [CPD-048, N^4-(7-(2-(4-(6-((6-Acetyl-8-cyclopentyl-5-methyl-7-oxo-7,8-dihydropyrido[2,3-d]pyrimidin-2-yl)amino)pyridin-3-yl)piperazin-1-yl)acetamido)heptyl)-2-methyl-N^1-(5-methylthiazol-2-yl)terephthalamide] | < 30% | – | D (protein percentage degradation <30%) | –
11 | CC(=O)c1c(C)c2cnc(Nc3ccc(N4CCN(CC(=O)NCCOCCOCCC(=O)Nc5ccccc5C(=O)Nc5nc(C6CCNCC6)c(C)s5)CC4)cn3)nc2n(C2CCCC2)c1=O [CPD-072, 2-(3-(2-(2-(2-(4-(6-((6-Acetyl-8-cyclopentyl-5-methyl-7-oxo-7,8-dihydropyrido[2,3-d]pyrimidin-2-yl)amino)pyridin-3-yl)piperazin-1-yl)acetamido)ethoxy)ethoxy)propanamido)-N-(5-methyl-4-(piperidin-4-yl)thiazol-2-yl)benzamide] | 50 to 80% | – | D (protein percentage degradation <30%) | –
12 | COc1ccc(NC(=O)c2ccccc2NC(=O)CCOCCOCCNC(=O)CN2CCN(c3ccc(Nc4ncc5c(C)c(C(C)=O)c(=O)n(C6CCCC6)c5n4)nc3)CC2)nn1 [CPD-085, 2-(3-(2-(2-(2-(4-(6-((6-Acetyl-8-cyclopentyl-5-methyl-7-oxo-7,8-dihydropyrido[2,3-d]pyrimidin-2-yl)amino)pyridin-3-yl)piperazin-1-yl)acetamido)ethoxy)ethoxy)propanamido)-N-(6-methoxypyridazin-3-yl)benzamide] | > 80% | – | A (protein percentage degradation >=80%) | –
13 | CC(=O)c1c(C)c2cnc(Nc3ccc(N4CCN(CC(=O)NCCOCCOCCOCCOCCOCCOCCNc5ccc(C)c(C(=O)Nc6nc(C)c(C)s6)c5)CC4)cn3)nc2n(C2CCCC2)c1=O [CPD-132, 5-((1-(4-(6-((6-Acetyl-8-cyclopentyl-5-methyl-7-oxo-7,8-dihydropyrido[2,3-d]pyrimidin-2-yl)amino)pyridin-3-yl)piperazin-1-yl)-2-oxo-6,9,12,15,18,21-hexaoxa-3-azatricosan-23-yl)amino)-N-(4,5-dimethylthiazol-2-yl)-2-methylbenzamide] | > 80% | – | A (protein percentage degradation >=80%) | –
14 | CC(=O)c1c(C)c2cnc(Nc3ccc(N4CCN(CC(=O)NCCCC(=O)Nc5ccccc5C(=O)Nc5nc(C)c(C)s5)CC4)cn3)nc2n(C2CCCC2)c1=O [CPD-171, 2-(4-(2-(4-(6-((6-Acetyl-8-cyclopentyl-5-methyl-7-oxo-7,8-dihydropyrido[2,3-d]pyrimidin-2-yl)amino)pyridin-3-yl)piperazin-1-yl)acetamido)butanamido)-N-(4,5-dimethylthiazol-2-yl)benzamide] | < 30% | – | D (protein percentage degradation <30%) | –
15 | CC(=O)c1c(C)c2cnc(Nc3ccc(N4CCN(CC(=O)NCCCNc5ccc(C)c(C(=O)Nc6nc(C)c(C)s6)c5)CC4)cn3)nc2n(C2CCCC2)c1=O [CPD-087, 5-((3-(2-(4-(6-((6-Acetyl-8-cyclopentyl-5-methyl-7-oxo-7,8-dihydropyrido[2,3-d]pyrimidin-2-yl)amino)pyridin-3-yl)piperazin-1-yl)acetamido)propyl)amino)-N-(4,5-dimethylthiazol-2-yl)-2-methylbenzamide] | < 30% | – | D (protein percentage degradation <30%) | –
16 | CC(=O)c1c(C)c2cnc(Nc3ccc(N4CCN(CC(=O)NCCOCCOCCC(=O)Nc5ccccc5C(=O)Nc5cc(C6CC6)n(C)n5)CC4)cn3)nc2n(C2CCCC2)c1=O [CPD-079, 2-(3-(2-(2-(2-(4-(6-((6-Acetyl-8-cyclopentyl-5-methyl-7-oxo-7,8-dihydropyrido[2,3-d]pyrimidin-2-yl)amino)pyridin-3-yl)piperazin-1-yl)acetamido)ethoxy)ethoxy)propanamido)-N-(5-cyclopropyl-1-methyl-1H-pyrazol-3-yl)benzamide] | < 30% | – | D (protein percentage degradation <30%) | –
